Measurements reported in patent US12448399B2, “Cereblon-based KRAS degrading PROTACs and uses related thereto” (Arvinas Operations, Inc., priority 2023, dated 2025).

How the values were obtained:
HPAC = assay: Tumor growth inhibition in vivo, HPAC pancreatic cancer model; set-up: species or system CB17 SCID female mice; conditions: dosed intravenously (IV)
Method: (§1) The effect on tumor growth of treatment with Compound 69 and 102 was assessed in the GP2d (95090714 Millipore Sigma, USA) and LS180 (CL-187 ATCC, USA) colorectal cancer models, and the AsPC-1 (CRL-1682 ATCC, USA), SW1990 (CRL-2172, ATCC, USA), HPAC (CRL-2119 ATCC, USA), and Panc04.03 (CRL-2555 ATCC, USA) pancreatic cancer models. Briefly, cells were grown in HYPER flasks (Corning) and harvested and prepared for implant by preparing a suspension with a final concentration of 25×10^6 cells/ml in 50% matrigel (Corning) and 50% phenol red-free media (Gibco DMEM or RPMI-1640, depending on cell line). For Panc04.03, 6-7 week NOD/SCID female mice (GemPharmatech Co. Ltd) were inoculated with 200 μl of the cell suspension ([…]) subcutaneously on the left flank under sterile conditions. For all other cell lines, 6-8 weeks old CB17 SCID female mice (Charles River Laboratories) were inoculated with 200 μl of the cell suspension (5 million cells/mouse) subcutaneously on the left flank under sterile conditions. Studies were initiated when tumors reached an average of approximately 200 mm^3. […] Tumor growth inhibition (TGI) was calculated using the formula % TGI=(VC−VT)/(VC−V0)×100 where VC, VT are the average of control and treated groups at the end of the study, and V0 is the average tumor volume at randomization.

Panc04.03 = assay: Tumor growth inhibition in vivo, Panc04.03 pancreatic cancer model; set-up: species or system NOD/SCID female mice; conditions: Panc04.03 model, dosed intravenously (IV)
Method: as §1

KRas-G12D = molecular target: T1, KRas-G12D (Homo sapiens, UniProt P01116, G12D); assay: HiBiT Degradation Assay (G12D), AsPC-1 HiBiT-KRasG12D cells, 24 hr; format: cell-based; conditions: for Dmax: ASPC1, AsPC-1 cells, maximum degradation observed; for DC50: AsPC-1 cells
T1 construct: insert the HiBiT tag onto the N-terminus of one or more of the endogenous KRas alleles; host or cells: AsPC-1 HiBiT-KRasG12D knock-in clone (one tagged allele, two untagged KRasG12D alleles)
T1 sequence (P01116 1-188 isoform P01116-2 G12D): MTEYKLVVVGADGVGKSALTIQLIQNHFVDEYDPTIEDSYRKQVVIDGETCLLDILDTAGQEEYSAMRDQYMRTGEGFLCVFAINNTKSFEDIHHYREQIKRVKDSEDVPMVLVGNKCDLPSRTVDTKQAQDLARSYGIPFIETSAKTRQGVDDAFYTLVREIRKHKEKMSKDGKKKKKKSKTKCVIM
Summary of the method: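 Degradation was read after 24 hr compound exposure (0.5% DMSO, 37° C) by Nano-Glo HiBiT lytic luminescence in AsPC-1 cells carrying a HiBiT tag on one of three KRasG12D alleles. Signal relative to DMSO gave DC50 and Dmax by 4-parameter fit; alamar blue fluorescence monitored cytotoxicity.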

GP2d = assay: Tumor growth inhibition in vivo, GP2d colorectal cancer model; set-up: species or system CB17 SCID female mice; conditions: dosed intravenously (IV)
Method: as §1

LS180 = assay: Tumor growth inhibition in vivo, LS180 colorectal cancer model; set-up: species or system CB17 SCID female mice; conditions: dosed intravenously (IV)
Method: as §1

AsPC-1 = assay: Tumor growth inhibition in vivo, AsPC-1 pancreatic cancer model; set-up: species or system CB17 SCID female mice; conditions: AsPC-1 model, dosed intravenously (IV)
Method: as §1

SW1990 = assay: Tumor growth inhibition in vivo, SW1990 pancreatic cancer model; set-up: species or system CB17 SCID female mice; conditions: dosed intravenously (IV)
Method: as §1

Compound | Dmax (KRas-G12D) [%] | DC50 (KRas-G12D) [µM] | also measured
C#Cc1c(F)ccc2cc(O)cc(-c3ncc4c(N5CC6CCC(C5)N6)nc(OCCN5CCC(CC6CCN(CC7CCN(c8ccc9c(c8F)CN(C8CCC(=O)NC8=O)C9=O)CC7)CC6)CC5)nc4c3F)c12 (stereo not drawn) [Compound 69, 3-[5-[4-[[4-[[1-[2-[4-(3,8-diazabicyclo[3.2.1]octan-3-yl)-7-(8-ethynyl-7-fluoro-3-hydroxy-1-naphthyl)-8-fluoro-pyrido[4,3-d]pyrimidin-2-yl]oxyethyl]-4-piperidyl]methyl]-1-piperidyl]methyl]-1-piperidyl]-4-fluoro-1-oxo-isoindolin-2-yl]piperidine-2,6-dione] | > 70 | < 5.1 | Tumor growth inhibition (TGI) (HPAC): robust TGI; Tumor growth inhibition (TGI) (Panc04.03): robust TGI; Tumor growth inhibition (TGI) (GP2d): robust TGI; Tumor growth inhibition (TGI) (LS180): robust TGI; Tumor growth response (AsPC-1): More moderate response; Tumor growth inhibition (TGI) (SW1990): robust TGI
C#Cc1c(F)ccc2cc(O)cc(-c3ncc4c(N5CC6CCC(C5)N6)nc(OCCN5CCC(CN6CCC(CN7CCN(c8ccc9c(c8F)CN(C8CCC(=O)NC8=O)C9=O)CC7)CC6)CC5)nc4c3F)c12 (stereo not drawn) [Compound 223, 3-{5-[4-({1-[(1-{2-[(4-{3,8-diazabicyclo[3.2.1]octan-3-yl}-7-(8-ethynyl-7-fluoro-3-hydroxynaphthalen-1-yl)-8-fluoropyrido[4,3-d]pyrimidin-2-yl)oxy]ethyl}piperidin-4-yl)methyl]piperidin-4-yl}methyl)piperazin-1-yl]-4-fluoro-1-oxo-2,3-dihydro-1H-isoindol-2-yl}piperidine-2,6-dione] | > 70 | < 5.1 | –
C#Cc1c(F)ccc2cc(O)cc(-c3ncc4c(N5CC6CCC(C5)N6)nc(OC[C@@H]5C[C@@H](OC6CCN(CC7CCN(c8ccc9c(c8F)n(C(C)C)c(=O)n9C8CCC(=O)NC8=O)CC7)CC6)CN5C)nc4c3F)c12 (stereo partly drawn) [Compound 224, 3-(5-{4-[(4-{[(3R,5S)-5-{[(4-{3,8-diazabicyclo[3.2.1]octan-3-yl}-7-(8-ethynyl-7-fluoro-3-hydroxynaphthalen-1-yl)-8-fluoropyrido[4,3-d]pyrimidin-2-yl)oxy]methyl}-1-methylpyrrolidin-3-yl]oxy}piperidin-1-yl)methyl]piperidin-1-yl}-4-fluoro-2-oxo-3-(propan-2-yl)-2,3-dihydro-1H-1,3-benzodiazol-1-yl)piperidine-2,6-dione] | > 70 | < 5.1 | –
C#Cc1c(F)ccc2cc(O)cc(-c3ccc4c(N5CC6CCC(C5)N6)nc(OCCN5CCN(CC6CCN(CC7CCN(c8ccc9c(c8)n(C)c(=O)n9C8CCC(=O)NC8=O)CC7)CC6)CC5(C)C)nc4c3F)c12 (stereo not drawn) [Compound 227] | – | < 5.1 | –
C#Cc1c(F)ccc2cccc(-c3ncc4c(N5CC6CCC(C5)N6)nc(OCC5(CN6CCC(F)(CN7CCN(c8ccc9c(c8)n(C)c(=O)n9C8CCC(=O)NC8=O)CC7)CC6)CC5)nc4c3F)c12 (stereo not drawn) [Compound 228, 3-[5-[4-[[1-[[1-[[4-(3,8-diazabicyclo[3.2.1]octan-3-yl)-7-(8-ethynyl-7-fluoro-1-naphthyl)-8-fluoro-pyrido[4,3-d]pyrimidin-2-yl]oxymethyl]cyclopropyl]methyl]-4-fluoro-4-piperidyl]methyl]piperazin-1-yl]-3-methyl-2-oxo-benzimidazol-1-yl]piperidine-2,6-dione] | – | < 5.1 | –
C#Cc1c(F)ccc2cc(O)cc(-c3ncc4c(N5CC6CCC(C5)N6)nc(OCC5(CN6CCC(CC7CCN(CC8CN(c9ccc%10c(c9)n(C)c(=O)n%10C9CCC(=O)NC9=O)C8)CC7)CC6)CC5)nc4c3F)c12 (stereo not drawn) [Compound 229, 3-[5-[3-[[4-[[1-[[1-[[4-(3,8-diazabicyclo[3.2.1]octan-3-yl)-7-(8-ethynyl-7-fluoro-3-hydroxy-1-naphthyl)-8-fluoro-pyrido[4,3-d]pyrimidin-2-yl]oxymethyl]cyclopropyl]methyl]-4-piperidyl]methyl]-1-piperidyl]methyl]azetidin-1-yl]-3-methyl-2-oxo-benzimidazol-1-yl]piperidine-2,6-dione] | > 70 | < 5.1 | –
C#Cc1c(F)ccc2cc(O)cc(-c3ncc4c(N5CC6CCC(C5)N6)nc(CCCN5CCC(CC6CCN(CC7CCN(c8ccc9c(c8)n(C)c(=O)n9C8CCC(=O)NC8=O)CC7)CC6)CC5)nc4c3F)c12 (stereo not drawn) [Compound 230, 3-[5-[4-[[4-[[1-[3-[4-(3,8-diazabicyclo[3.2.1]octan-3-yl)-7-(8-ethynyl-7-fluoro-3-hydroxy-1-naphthyl)-8-fluoro-pyrido[4,3-d]pyrimidin-2-yl]propyl]-4-piperidyl]methyl]-1-piperidyl]methyl]-1-piperidyl]-3-methyl-2-oxo-benzimidazol-1-yl]piperidine-2,6-dione] | – | < 5.1 | –
C#Cc1c(F)ccc2cc(O)cc(-c3ccc4c(N5CC6CCC(C5)N6)nc(OCCN5CCC(CN6CCC(CC7CCN(c8ccc9c(c8F)n(C)c(=O)n9C8CCC(=O)NC8=O)CC7)CC6)CC5)nc4c3F)c12 (stereo not drawn) [Compound 231] | > 70 | < 5.1 | –
C#Cc1c(F)ccc2cc(O)cc(-c3ccc4c(N5CC6CCC(C5)N6)nc(OCCN5CCC(CC6CCN(CC7CCN(c8ccc9c(c8F)n(C)c(=O)n9C8CCC(=O)NC8=O)CC7)CC6)CC5)nc4c3F)c12 (stereo not drawn) [Compound 232] | > 70 | < 5.1 | –
C#Cc1c(F)ccc2cc(O)cc(-c3ccc4c(N5CC6CCC(C5)N6)nc(OCCN5CCC(CN6CCC(CC7CCN(c8ccc9c(c8)n(C)c(=O)n9C8CCC(=O)NC8=O)CC7)CC6)CC5)nc4c3F)c12 (stereo not drawn) [Compound 233] | > 70 | < 5.1 | –
C#Cc1c(F)ccc2cccc(-c3ncc4c(N5CC6CCC(C5)N6)nc(OC[C@@]56CCCN5[C@H](CN5CCN(CC7CCN(c8ccc9c(c8)n(C)c(=O)n9C8CCC(=O)NC8=O)CC7)CC5)CC6)nc4c3F)c12 (stereo partly drawn) [Compound 234] | > 70 | < 5.1 | –
C#Cc1c(F)ccc2cc(O)cc(-c3ncc4c(N5CC6CCC(C5)N6)nc(N5CC[C@@H](N6CCC(CC7CCN(c8ccc9c(c8)n(C)c(=O)n9C8CCC(=O)NC8=O)CC7)CC6)C5)nc4c3F)c12 (stereo partly drawn) [Compound 236, 3-[5-[4-[[1-[(3R)-1-[4-(3,8-diazabicyclo[3.2.1]octan-3-yl)-7-(8-ethynyl-7-fluoro-3-hydroxy-1-naphthyl)-8-fluoro-pyrido[4,3-d]pyrimidin-2-yl]pyrrolidin-3-yl]-4-piperidyl]methyl]-1-piperidyl]-3-methyl-2-oxo-benzimidazol-1-yl]piperidine-2,6-dione] | > 70 | < 5.1 | –
C#Cc1c(F)ccc2cc(O)cc(-c3ccc4c(N5CC6CCC(C5)N6)nc(OCCN5CCC(CC6CCN(CC7CCN(c8ccc9c(c8)n(C)c(=O)n9C8CCC(=O)NC8=O)CC7)CC6)CC5)nc4c3F)c12 (stereo not drawn) [Compound 237] | > 70 | < 5.1 | –
C#Cc1c(F)ccc2cccc(-c3ncc4c(N5CC6CCC(C5)N6)nc(OC[C@@]56CCCN5[C@H](CN5CCN(CC7CCN(c8ccc9c(c8F)CN(C8CCC(=O)NC8=O)C9=O)CC7)CC5)CC6)nc4c3F)c12 (stereo partly drawn) [Compound 238] | > 70 | < 5.1 | –
C#Cc1c(F)ccc2cc(O)cc(-c3ncc4c(N5CC6CCC(C5)N6)nc(OCCN5CCC(CN6CCN(CC7CCN(c8ccc9c(c8F)CN(C8CCC(=O)NC8=O)C9=O)CC7)CC6(C)C)CC5)nc4c3F)c12 (stereo not drawn) [Compound 239, 3-[5-[4-[[4-[[1-[2-[4-(3,8-diazabicyclo[3.2.1]octan-3-yl)-7-(8-ethynyl-7-fluoro-3-hydroxy-1-naphthyl)-8-fluoro-pyrido[4,3-d]pyrimidin-2-yl]oxyethyl]-4-piperidyl]methyl]-3,3-dimethyl-piperazin-1-yl]methyl]-1-piperidyl]-4-fluoro-1-oxo-isoindolin-2-yl]piperidine-2,6-dione] | > 70 | < 5.1 | –
